Assay results reported in patent US20250241897A1, “COMPOSITION FOR ERADICATING HELICOBACTER PYLORI” (HK INNO.N CORPORATION, priority 2018, published 2025).

Experiments:
intragastric pH = assay: Clinical study 1, Cohort 2: 24-hour intragastric pH measurement on repeated co-administration; format: in vivo, human; conditions: with amoxicillin/clarithromycin
Description: To identify an effect of eradicating Helicobacter pylori in the present invention, a clinical study was designed in accordance with a randomized, open-label, active-controlled, parallel and multiple-dose design. A total of 221 patients were subjected to screening for this study. Out of them, 36 patients were registered thereto and the completed clinical results were obtained from 34 patients.
Particularly, the 36 patients above were divided into three patient groups (T1, T2 and R) and the clinical study was performed accordingly. […]
The T1 group was repeatedly given 50 mg of CJ-12420 and 1000 mg of amoxicillin/500 mg of clarithromycin twice a day for seven days; the T2 group was repeatedly given 100 mg of CJ-12420 and 1000 mg of amoxicillin/500 mg of clarithromycin twice a day for seven days; and the R group was repeatedly given 40 mg of pantoprazole and 1000 mg of amoxicillin/500 mg of clarithromycin twice a day for seven days. An intragastric pH was measured from all the subjects on Day 1 for 24 hours, and the intragastric pH was also measured for 24 hours on Day 1 and Day 7 of repeated administration. Also, a negative conversion rate was calculated upon a follow-up visit paid by subjects who were identified to be H. pylori positive on the UBT test during screening, and stability evaluation was performed according to a predetermined schedule. […]

[1] = Clinical study 1, Cohort 1: pharmacokinetic interaction of tegoprazan and amoxicillin/clarithromycin, multiple dose; format: in vivo, human
Procedure: To evaluate pharmacokinetic interaction of multiple-dose administration of single and combination of tegoprazan and amoxicillin/clarithromycin, a clinical study was designed in accordance with a randomized, open-label, and multiple-dose design.
A total of 24 subjects who had been determined eligible to participate in the study were randomly assigned in a 1:1 ratio to each one of the two groups. Each randomly-assigned group was administered with investigational medical products as arranged during each intervention period and underwent a clinical study as designed. In consideration of the half-life of each product, a 14-day wash-out period was given between the intervention periods.
A total of 24 subjects were divided into group 1 and group 2. During the first intervention period, subjects of group 1 (12 person) were repeatedly administered with 100 mg of tegoprazan twice a day for four days and administered once a day on the fifth day on which a pharmacokinetic clinical study was conducted. During the second intervention period after a 14-day wash-out period, they were repeatedly administered with 1000 mg of amoxicillin and 500 mg of clarithromycin twice a day for four days and administered once a day on the fifth day. During the third intervention period after a 14-day wash-out period, they were repeatedly administered with 100 mg of tegoprazan, 1000 mg of amoxicillin, and 500 mg of clarithromycin twice a day for six days and administered once a day on the seventh day. Following the last dose of each intervention period, pharmacokinetic blood samples were collected for 17 times over 72 hours in the first period, 14 times over 48 hours in the second period, and 19 times over 120 hours in the third period.
Drugs were administered to subjects of group 2 (12 person) in the reverse order to the way the study was conducted on group 1 in the first and second intervention periods and in the same order in the third intervention period. Pharmacokinetic blood samples were collected in the same manner as group 1.
The average plasma concentrations of tegoprazan, clarithromycin, and amoxicillin were measured and time-based plasma concentration and time-based drug concentration patterns were observed when tegoprazan was repeatedly administered alone, amoxicillin/clarithromycin were repeatedly administered and tegoprazan, amoxicillin, and clarithromycin were repeatedly administered in combination.
Pharmacokinetics of tegoprazan, amoxicillin, and clarithromycin were evaluated. Descriptive statistics of pharmacokinetic evaluation parameters were presented. Point estimates for geometric mean ratio between each group and 90% confidence interval were calculated from the log-converted primary pharmacokinetic evaluation parameters by using a linear mixed effect model.

[2] = tegoprazan 100 mg twice a day, combination with amoxicillin 1000 mg/clarithromycin 500 mg versus alone
[3] = clarithromycin 500 mg with amoxicillin 1000 mg twice a day, with versus without tegoprazan 100 mg

| increase of AUC of tegoprazan when administered in combination with amoxicillin/clarithromycin [1, 2] | increase of Cmax of tegoprazan when administered in combination with amoxicillin/clarithromycin [1, 2] | AUC of clarithromycin when administered in combination with tegoprazan [1, 3] | Cmax of clarithromycin when administered in combination with tegoprazan [1, 3] | Structure (SMILES) | time to increase pH to 6 or more right after the administration (intragastric pH) |
| --- | --- | --- | --- | --- | --- |
| 2.70 times | 2.24 times |  |  | Cc1nc2c(OC3CCOc4cc(F)cc(F)c43)cc(C(=O)N(C)C)cc2[nH]1 (centres unmarked) [Tegoprazan, 4-[(5,7-difluoro-3,4-dihydro-2H-chromene-4-yl)oxy]-N,N,2-trimethyl-1H-benzimidazole-6-carboxamide] | two |
|  |  | showed a tendency to increase | showed a tendency to increase | CC[C@H]1OC(=O)[C@H](C)[C@@H](O[C@H]2C[C@@](C)(OC)[C@@H](O)[C@H](C)O2)[C@H](C)[C@@H](O[C@@H]2O[C@H](C)C[C@H](N(C)C)[C@H]2O)[C@](C)(OC)C[C@@H](C)C(=O)[C@H](C)[C@@H](O)[C@]1(C)O [clarithromycin, (3R,4S,5S,6R,7R,9R,11R,12R,13S,14R)-6-[(2S,3R,4S,6R)-4-(dimethylamino)-3-hydroxy-6-methyloxane-2-yl]oxy-14-ethyl-12,13-dihydroxy-4-[(2R,4R,5S,6S)-5-hydroxy-4-methoxy-4,6-dimethyloxane-2-yl]oxy-7-methoxy-3,5,7,9,11,13-hexamethyl-oxacyclotetradecane-2,10-dione, reference compound] |  |
